Measured values from PubChem BioAssay (NCI).
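How tested: cells in 96-well plates exposed to compound for 48 hours at five concentrations. At the GI50, growth is halved. TGI: total growth inhibition.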

Tests used:
Test in all cases: inhibition of tumour cell growth, NCI panel, 48 h
NCI-H23 lung = tested on: NCI-H23 lung
NCI-H460 lung = tested on: NCI-H460 lung
NCI-H522 lung = tested on: NCI-H522 lung
NCI/ADR-RES ovarian = tested on: NCI/ADR-RES ovarian
OVCAR-3 ovarian = tested on: OVCAR-3 ovarian
OVCAR-4 ovarian = tested on: OVCAR-4 ovarian
OVCAR-5 ovarian = tested on: OVCAR-5 ovarian
OVCAR-8 ovarian = tested on: OVCAR-8 ovarian
PC-3 prostate = tested on: PC-3 prostate
RPMI-8226 leukemia = tested on: RPMI-8226 leukemia
RXF 393 renal = tested on: RXF 393 renal
SF-268 CNS = tested on: SF-268 CNS
SF-295 CNS = tested on: SF-295 CNS
SF-539 CNS = tested on: SF-539 CNS
SK-MEL-2 melanoma = tested on: SK-MEL-2 melanoma
SK-MEL-28 melanoma = tested on: SK-MEL-28 melanoma
SK-MEL-5 melanoma = tested on: SK-MEL-5 melanoma
SK-OV-3 ovarian = tested on: SK-OV-3 ovarian
SN12C renal = tested on: SN12C renal
SNB-19 CNS = tested on: SNB-19 CNS
SNB-75 CNS = tested on: SNB-75 CNS
SR leukemia = tested on: SR leukemia
SW-620 colon = tested on: SW-620 colon
T-47D breast = tested on: T-47D breast
TK-10 renal = tested on: TK-10 renal
U251 CNS = tested on: U251 CNS
UACC-257 melanoma = tested on: UACC-257 melanoma
UACC-62 melanoma = tested on: UACC-62 melanoma
UO-31 renal = tested on: UO-31 renal

## O=C(N/N=C/c1ccc([N+](=O)[O-])cc1)c1ccc2nc(-c3ccc(Cl)cc3)[nH]c2c1
NCI-H23 lung
  TGI: 11.5 µM
NCI-H460 lung
  GI50: 2.1 µM
  TGI: 4.49 µM
NCI-H522 lung
  GI50: 3.05 µM
  TGI: 11.7 µM
NCI/ADR-RES ovarian
  GI50: 12.6 µM
  TGI: > 100 µM
OVCAR-3 ovarian
  GI50: 3.25 µM
  TGI: 8.23 µM
OVCAR-4 ovarian
  GI50: 2.75 µM
  TGI: 8.64 µM
OVCAR-5 ovarian
  GI50: 4.43 µM
  TGI: 37.8 µM
OVCAR-8 ovarian
  GI50: 2.89 µM
  TGI: 13.7 µM
PC-3 prostate
  GI50: 0.42 µM
  TGI: 15.3 µM
RPMI-8226 leukemia
  GI50: 0.461 µM
  TGI: 2.41 µM
RXF 393 renal
  GI50: 2.03 µM
  TGI: 7.07 µM
SF-268 CNS
  GI50: 4.97 µM
  TGI: 24.3 µM
SF-295 CNS
  GI50: 3.4 µM
  TGI: 13.1 µM
SF-539 CNS
  GI50: 2.73 µM
  TGI: 10.1 µM
SK-MEL-2 melanoma
  GI50: 5.1 µM
  TGI: 21.9 µM
SK-MEL-28 melanoma
  GI50: 2.6 µM
  TGI: 10.3 µM
SK-MEL-5 melanoma
  GI50: 2.11 µM
  TGI: 4.78 µM
SK-OV-3 ovarian
  GI50: 11.4 µM
  TGI: 39.6 µM
SN12C renal
  GI50: 3.14 µM
  TGI: 18.1 µM
SNB-19 CNS
  GI50: 7.48 µM
  TGI: 32.4 µM
SNB-75 CNS
  GI50: 2.78 µM
  TGI: 18 µM
SR leukemia
  GI50: 0.566 µM
  TGI: 4.87 µM
SW-620 colon
  GI50: 3.44 µM
  TGI: 10.8 µM
T-47D breast
  GI50: 2.29 µM
  TGI: 7.21 µM
TK-10 renal
  GI50: 8.99 µM
  TGI: 42.3 µM
U251 CNS
  GI50: 2.91 µM
  TGI: 10.8 µM
UACC-257 melanoma
  GI50: 3.37 µM
  TGI: 15.4 µM
UACC-62 melanoma
  GI50: 3.51 µM
  TGI: 14.9 µM
UO-31 renal
  GI50: 6.05 µM
  TGI: 38.3 µM
